Source: patent US10370405B2, “C-3 novel triterpenone with C-28 amide derivatives as HIV inhibitors” (HETERO LABS LIMITED, priority 2016, dated 2019)
Like-named read-outs stand apart in the source and are kept apart here.

Legend:
HIV-1 strain 92HT599 = assay: Antiviral activity: p24 estimation in MT2 cells infected with HIV-1; format: cell-based; settings: for IC50: Human immunodeficiency virus 1, MT2; for inhibition at 0.01 µM / inhibition at 0.1 µM / inhibition at 1 µM: Human immunodeficiency virus 1, MT2 cells, HIV-1 92HT599, p24, ~96 hours
Method: MT2 cells were infected with HIV-1 strain 92HT599 (10 TCID 50/30000 cells). The infected cells were plated at the concentration of ˜30 000 cells per well in 96 well plate. Test compound was added to the micro plate in defined format with the final concentration of DMSO (vehicle) is not more than 1%. Incubation was carried out in CO2 incubator for ˜96 hours for viral infection. At the end of incubation period an aliquot from each well was taken for p24 estimation. The quantitation of p24 is an index for antiviral activity of the compound. Percent inhibition was calculated with reference to control values (vehicle controls). P-24 estimation was carried out using Advance biosciences kit as per the procedure detailed by supplier.

[1] = Single dose oral pharmacokinetic study; format: in vivo; settings: mouse, plasma; Mice oral PK @30 mg/kg
Method: The test item was administered through oral route to animals (rat/mice) at 30 mg/kg dose in a suitable vehicle (10% Solutol+20% PEG) at 10 ml/kg dose volume. Blood samples (˜50 μL at each time point) were collected from retro-orbital plexus using K3 EDTA as anticoagulant in eppendorf tubes at defined time intervals 30 minutes, 1 hour, 2 hour, 4 hour, 8 hour, 24 hour & 48 hour under light ether anaesthesia. The samples were centrifuged at 3500×g to separate plasma and stored at −80° C. until analysis. Plasma […] for Mice were processed as per described in sample preparation.
Standard solutions of the test compound 1 mg/mL solutions were prepared in DMSO and further dilutions were made in methanol. The calibration curve samples for LCMSMS analysis were prepared by spiking 25 μl of Mice plasma with 2.5 μl and of the appropriate working standard solution to obtain final concentrations 0.078, 0.156, 0.312, 0.625, 1.25, 2.5, 5, 10, 20 & 40 µg/ml. To the test compound plasma extraction was carried out using Acetonitrile precipitation. After reconstitution with solvent (50% Acetonitrile in Buffer) samples were analyzed by LCMSMS to get the concentrations to calculate PK Parameters.

[2] = 0% serum, read-out: Antiviral activity IC50 (nM) 0%
[3] = read-out: Antiviral activity IC50 (nM) 40% serum

Method for in vitro: On day 1 calculate the number of cells required for the assay and seed 3×10^4 cells in 200 μl per well. Weigh the compound and dissolve it in DMSO to get 10 mM stock which is further diluted to 3 mM and 1 mM. The drugs from these stocks were added to plate to get final concentration of 100 μM, 30 μM and 10 μM. […] Incubate for 4 days in 5% CO2 incubator at 37° C. On day 4, 100 μl of medium was removed from each well without disturbing the cells. Add 10 μl of MTT reagent and incubate for 4 hours at 5% CO2 incubator at 37° C. for formation of crystals. Add 200 μl of 0.1N acidic isopropanol to dissolve the crystals and read the plate at 590 nm.

| Compound | IC50 (HIV-1 strain 92HT599; [2]) [nM] | IC50 (HIV-1 strain 92HT599; [3]) [nM] | inhibition at 0.01 µM (HIV-1 strain 92HT599) [%] | inhibition at 0.1 µM (HIV-1 strain 92HT599) [%] | inhibition at 1 µM (HIV-1 strain 92HT599) [%] | AUC(0-t) [1] [ng·h/mL] | Cmax [1] [ng/mL] | viability at 4 days, 10 μM (in vitro) [%] | viability at 4 days, 30 μM (in vitro) [%] | viability at 4 days, 100 μM (in vitro) [%] |
| --- | --- | --- | --- | --- | --- | --- | --- | --- | --- | --- |
| CC(C)C1=C2[C@H]3CC[C@@H]4[C@@]5(C)CC[C@H](OC(=O)[C@H]6C[C@@H](C(=O)O)C6(C)C)C(C)(C)[C@@H]5CC[C@@]4(C)[C@]3(C)CC[C@@]2(C(=O)NC(C)(C)CO)CC1=O [Example 15, (1R,3S)-3-((((3aR,5aR,5bR,7aR,9S,11aR,11bR,13aS)-3a-((1-hydroxy-2-methylpropan-2-yl)carbamoyl)-1-isopropyl-5a,5b,8,8,11a-pentamethyl-2-oxo-3,3a,4,5,5a,5b,6,7,7a,8,9,10,11,11a,11b,12,13,13a-octadecahydro-2H-cyclopenta[a]chrysen-9-yl)oxy)carbonyl)-2,2-dimethylcyclobutane-1-carboxylic acid] | 2.84 | 415 | 97 | 100 | 100 | 88700 | 9080 | 70 | 22 | 6 |
| CC(C)C1=C2[C@H]3CC[C@@H]4[C@@]5(C)CC[C@H](OC(=O)[C@H]6C[C@@H](C(=O)O)C6(C)C)C(C)(C)[C@@H]5CC[C@@]4(C)[C@]3(C)CC[C@@]2(C(=O)N2CCCC2c2ncc(-c3ccccc3)[nH]2)CC1=O (stereo partly drawn) [Example 1, (1R,3S)-3-((((3aR,5aR,5bR,7aR,9S,11aR,11bR,13aS)-1-isopropyl-5a,5b,8,8,11a-pentamethyl-2-oxo-3a-((S)-2-(5-phenyl-1H-imidazol-2-yl)pyrrolidine-1-carbonyl)-3,3a,4,5,5a,5b,6,7,7a,8,9,10,11,11a,11b,12,13,13a-octadecahydro-2H-cyclopenta[a]chrysen-9-yl)oxy)carbonyl)-2,2-dimethlcyclobutane-1-carboxylic acid] | 5.21 | 3.92 | 100 | 98 | 99 | 69800 | 8650 | 80 | 67 | 62 |
| CC(C)C1=C2[C@H]3CC[C@@H]4[C@@]5(C)CC[C@H](OC(=O)[C@H]6C[C@@H](C(=O)O)C6(C)C)C(C)(C)[C@@H]5CC[C@@]4(C)[C@]3(C)CC[C@@]2(C(=O)NC(C)(C)CN2CCCC2)CC1=O [Example 12, (1R,3S)-3-((((3aR,5aR,5bR,7aR,9S,11aR,11bR,13aS)-1-isopropyl-5a,5b,8,8,11a-pentamethyl-3a-((2-methyl-1-(pyrrolidin-1-yl)propan-2-yl)carbamoyl)-2-oxo-3,3a,4,5,5a,5b,6,7,7a,8,9,10,11,11a,11b,12,13,13a-octadecahydro-2H-cyclopenta[a]chrysen-9-yl)oxy)carbonyl)-2,2-dimethlcyclobutane-1-carboxylic acid] | 3.71 | 164 | 9 | 95 | 100 | 19000 | 5100 | 100 | 100 | 96 |
| CC(C)C1=C2[C@H]3CC[C@@H]4[C@@]5(C)CC[C@H](OC(=O)[C@H]6C[C@@H](C(=O)O)C6(C)C)C(C)(C)[C@@H]5CC[C@@]4(C)[C@]3(C)CC[C@@]2(C(=O)N2CCC[C@H]2C(C)(C)O)CC1=O [Example 9, (1R,3S)-3-((((3aR,5aR,5bR,7aR,9S,11aR,11bR,13aS)-3a-((S)-2-(2-hydroxypropan-2-yl)pyrrolidine-1-carbonyl)-1-isopropyl-5a,5b,8,8,11a-pentamethyl-2-oxo-3,3a,4,5,5a,5b,6,7,7a,8,9,10,11,11a,11b,12,13,13a-octadecahydro-2H-cyclopenta[a]chrysen-9-yl)oxy)carbonyl)-2,2-dimethylcyclobutane-1-carboxylic acid] | 7.44 | 342 | 100 | 100 | 100 | 107000 | 10900 | 40 | 9 | 8 |
| CC(C)C1=C2[C@H]3CC[C@@H]4[C@@]5(C)CC[C@H](OC(=O)[C@H]6C[C@@H](C(=O)O)C6(C)C)C(C)(C)[C@@H]5CC[C@@]4(C)[C@]3(C)CC[C@@]2(C(=O)NC(C)(C)c2ncc(-c3ccccc3)[nH]2)CC1=O [Example 8, (1R,3S)-3-((((3aR,5aR,5bR,7aR,9S,11aR,11bR,13aS)-1-isopropyl-5a,5b,8,8,11a-pentamethyl-2-oxo-3a-((2-(5-phenyl-1H-imidazol-2-yl)propan-2-yl)carbamoyl)-3,3a,4,5,5a,5b,6,7,7a,8,9,10,11,11a,11b,12,13,13a-octadecahydro-2H-cyclopenta[a]chrysen-9-yl)oxy)carbonyl)-2,2-dimethylcyclobutane-1-carboxylic acid] | 3.7 | 14.2 | 100 | 100 | 100 | 265000 | 15200 | 29 | 5 | 2 |
| CC(C)C1=C2[C@H]3CC[C@@H]4[C@@]5(C)CC[C@H](OC(=O)[C@H]6C[C@@H](C(=O)O)C6(C)C)C(C)(C)[C@@H]5CC[C@@]4(C)[C@]3(C)CC[C@@]2(C(=O)N2CCC[C@H]2c2ncc(-c3cccnc3)[nH]2)CC1=O [Example 3, (1R,3S)-3-((((3aR,5aR,5bR,7aR,9S,11aR,11bR,13aS)-1-isopropyl-5a,5b,8,8,11a-pentamethyl-2-oxo-3a-((S)-2-(5-(pyridin-3-yl)-1H-imidazol-2-yl)pyrrolidine-1-carbonyl)-3,3a,4,5,5a,5b,6,7,7a,8,9,10,11,11a,11b,12,13,13a-octadecahydro-2H-cyclopenta[a]chrysen-9-yl)oxy)carbonyl)-2,2-dimethlcyclobutane-1-carboxylic acid] | 1.82 | 0.81 | 100 | 100 | 100 | 48600 | 8530 | 98 | 67 | 45 |
| CC(C)C1=C2[C@H]3CC[C@@H]4[C@@]5(C)CC[C@H](OC(=O)[C@H]6C[C@@H](C(=O)O)C6(C)C)C(C)(C)[C@@H]5CC[C@@]4(C)[C@]3(C)CC[C@@]2(C(=O)N(CCN(C)C)Cc2ccc(Cl)cc2)CC1=O [Example 14, (1R,3S)-3-((((3aR,5aR,5bR,7aR,9S,11aR,11bR,13aS)-3a-((4-chlorobenzyl)(2-(dimethylamino)ethyl)carbamoyl)-1-isopropyl-5a,5b,8,8,11a-pentamethyl-2-oxo-3,3a,4,5,5a,5b,6,7,7a,8,9,10,11,11a,11b,12,13,13a-octadecahydro-2H-cyclopenta[a]chrysen-9-yl)oxy)carbonyl)-2,2-dimethylcyclobutane-1-carboxylic acid] | 1.72 | 9.83 | 100 | 100 | 100 | 166000 | 9640 | 91 | 12 | 12 |
